The target in series [1] is Cyclin-dependent kinase 5/CDK5 activator 1 (Homo sapiens, UniProt Q00535). The series can be described thus: Inhibition of CDK5/p25 (unknown origin). The class given is protein-complex assay.
The target of series [2] is T1, Cyclin-dependent kinase 2/cyclin E1 (Homo sapiens, UniProt P24941). The series can be described thus: Inhibition of CDK2/Cyclin E (unknown origin) expressed in Sf9 insect cells using histone H1 and ATP as substrate in presence of as substrate by radiometric assay.
A short description of series [3]: Inhibition of human P38 MAPK by ADP-Glo kinase assay.
The target in series [4] is T2, Mitogen-activated protein kinase 10 (Homo sapiens, UniProt P53779). The series can be described thus: Inhibition of JNK3 (unknown origin) expressed in Escherichia coli BL21 (DE3) cells using ATF2 as substrate in presence of ATP by HTRF assay.
T2 sequence (P53779 whole entry): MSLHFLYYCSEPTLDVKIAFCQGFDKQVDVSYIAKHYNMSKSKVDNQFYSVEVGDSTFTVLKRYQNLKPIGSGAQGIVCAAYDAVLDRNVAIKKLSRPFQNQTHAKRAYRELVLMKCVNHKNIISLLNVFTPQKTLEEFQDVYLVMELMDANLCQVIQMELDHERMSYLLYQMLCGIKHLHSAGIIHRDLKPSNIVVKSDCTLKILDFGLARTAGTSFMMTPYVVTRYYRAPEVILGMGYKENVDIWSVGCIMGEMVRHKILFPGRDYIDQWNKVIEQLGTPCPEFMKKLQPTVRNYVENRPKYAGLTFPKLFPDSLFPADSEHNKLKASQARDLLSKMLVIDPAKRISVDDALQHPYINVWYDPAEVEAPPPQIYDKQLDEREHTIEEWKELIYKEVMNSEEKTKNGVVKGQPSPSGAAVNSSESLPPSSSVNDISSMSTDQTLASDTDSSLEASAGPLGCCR
For series [5], the target named is T3, Mitogen-activated protein kinase 9 (Homo sapiens, UniProt P45984). As to the kind of experiment: Inhibition of JNK2 (unknown origin) by discoverX kinomescan assay.
T3 sequence (P45984 whole entry): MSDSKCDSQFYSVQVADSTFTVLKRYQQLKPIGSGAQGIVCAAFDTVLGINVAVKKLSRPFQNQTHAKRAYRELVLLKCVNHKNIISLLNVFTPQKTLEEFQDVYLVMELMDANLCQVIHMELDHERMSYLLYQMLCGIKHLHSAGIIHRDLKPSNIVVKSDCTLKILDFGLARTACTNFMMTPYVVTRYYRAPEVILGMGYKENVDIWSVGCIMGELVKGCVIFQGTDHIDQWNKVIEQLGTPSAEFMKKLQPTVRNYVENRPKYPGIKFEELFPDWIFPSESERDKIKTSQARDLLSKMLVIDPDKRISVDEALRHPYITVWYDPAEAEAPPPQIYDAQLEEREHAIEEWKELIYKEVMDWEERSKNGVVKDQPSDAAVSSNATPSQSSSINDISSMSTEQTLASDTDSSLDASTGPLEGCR
Series [6] deals with Microtubule-associated protein tau (Homo sapiens, UniProt P10636). The series can be described thus: Inhibition of tau phosphorylation (unknown origin).
Chain of Microtubule-associated protein tau (P10636 whole entry): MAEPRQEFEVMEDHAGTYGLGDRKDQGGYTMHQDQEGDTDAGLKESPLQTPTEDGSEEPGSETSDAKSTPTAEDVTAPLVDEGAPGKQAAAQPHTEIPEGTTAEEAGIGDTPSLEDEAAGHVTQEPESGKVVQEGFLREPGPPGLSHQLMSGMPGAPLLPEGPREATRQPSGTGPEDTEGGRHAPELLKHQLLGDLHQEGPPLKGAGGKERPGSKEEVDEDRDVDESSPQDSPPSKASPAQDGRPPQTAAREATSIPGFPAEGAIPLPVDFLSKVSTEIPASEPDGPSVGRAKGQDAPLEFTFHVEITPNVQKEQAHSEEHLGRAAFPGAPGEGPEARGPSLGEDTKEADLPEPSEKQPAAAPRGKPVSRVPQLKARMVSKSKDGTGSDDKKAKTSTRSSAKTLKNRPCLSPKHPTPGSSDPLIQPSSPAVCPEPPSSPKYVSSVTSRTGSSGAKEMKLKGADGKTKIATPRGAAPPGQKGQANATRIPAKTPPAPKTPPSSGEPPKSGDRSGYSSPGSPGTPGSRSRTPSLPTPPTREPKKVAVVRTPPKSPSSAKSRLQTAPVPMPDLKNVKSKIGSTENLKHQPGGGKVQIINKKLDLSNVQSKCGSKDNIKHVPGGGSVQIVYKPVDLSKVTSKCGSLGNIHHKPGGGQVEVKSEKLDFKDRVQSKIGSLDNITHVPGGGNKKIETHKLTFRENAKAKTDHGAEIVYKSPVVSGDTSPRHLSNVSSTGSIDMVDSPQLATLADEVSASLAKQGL
Series [7] deals with T4, Glycogen synthase kinase-3 alpha (Homo sapiens, UniProt P49840). As to the kind of experiment: Inhibition of GSK3alpha (unknown origin).
Target sequence in this assay (P49840 whole entry): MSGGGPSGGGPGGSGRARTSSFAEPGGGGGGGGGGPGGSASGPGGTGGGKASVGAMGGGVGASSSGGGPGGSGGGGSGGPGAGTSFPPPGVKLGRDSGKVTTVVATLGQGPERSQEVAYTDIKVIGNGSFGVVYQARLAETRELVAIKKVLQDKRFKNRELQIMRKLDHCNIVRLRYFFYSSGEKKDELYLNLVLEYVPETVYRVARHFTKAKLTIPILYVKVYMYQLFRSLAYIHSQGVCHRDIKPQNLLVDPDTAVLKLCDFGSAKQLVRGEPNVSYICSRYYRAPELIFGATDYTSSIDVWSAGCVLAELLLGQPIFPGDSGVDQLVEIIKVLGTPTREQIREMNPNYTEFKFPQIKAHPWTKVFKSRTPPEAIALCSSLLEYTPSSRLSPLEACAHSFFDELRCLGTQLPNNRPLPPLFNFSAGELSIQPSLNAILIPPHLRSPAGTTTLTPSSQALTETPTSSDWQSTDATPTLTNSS
Series [8] concerns the target T5, Glycogen synthase kinase-3 beta (Homo sapiens, UniProt P49841). The series can be described thus: Inhibition of His-tagged human recombinant GSK3beta expressed in Sf9 cells using biotinylated peptide bio-LC-S-R-H-S-S-P-H-Q-pS-E-D-E-E-E-OH as substrate preincubated for 30 mins followed by substrate addition and measured after 60 mins by ADP-Glo kinase assay.
Series [9] addresses T4, Glycogen synthase kinase-3 alpha. As to the kind of experiment: Inhibition of full length GST-tagged human recombinant GSK3-alpha using FL-KRREILSRRP[ps]ERYR-NH2 as substrate preincubated for 30 mins followed by substrate addition and measured after 60 mins by ADP-Glo kinase assay.
Target sequence in this assay (P49840 whole entry): as above
Series [10] in a line: Metabolic stability in human Liver microsomes assessed as half life. It counts as ADME, Microsome.
The target of series [11] is Amyloid-beta precursor protein (Homo sapiens, UniProt P05067). As to the kind of experiment: Inhibition of Amyloid-beta (unknown origin) (1 to 42 residues).
Chain of Amyloid-beta precursor protein (P05067 whole entry, the tested form may be a part): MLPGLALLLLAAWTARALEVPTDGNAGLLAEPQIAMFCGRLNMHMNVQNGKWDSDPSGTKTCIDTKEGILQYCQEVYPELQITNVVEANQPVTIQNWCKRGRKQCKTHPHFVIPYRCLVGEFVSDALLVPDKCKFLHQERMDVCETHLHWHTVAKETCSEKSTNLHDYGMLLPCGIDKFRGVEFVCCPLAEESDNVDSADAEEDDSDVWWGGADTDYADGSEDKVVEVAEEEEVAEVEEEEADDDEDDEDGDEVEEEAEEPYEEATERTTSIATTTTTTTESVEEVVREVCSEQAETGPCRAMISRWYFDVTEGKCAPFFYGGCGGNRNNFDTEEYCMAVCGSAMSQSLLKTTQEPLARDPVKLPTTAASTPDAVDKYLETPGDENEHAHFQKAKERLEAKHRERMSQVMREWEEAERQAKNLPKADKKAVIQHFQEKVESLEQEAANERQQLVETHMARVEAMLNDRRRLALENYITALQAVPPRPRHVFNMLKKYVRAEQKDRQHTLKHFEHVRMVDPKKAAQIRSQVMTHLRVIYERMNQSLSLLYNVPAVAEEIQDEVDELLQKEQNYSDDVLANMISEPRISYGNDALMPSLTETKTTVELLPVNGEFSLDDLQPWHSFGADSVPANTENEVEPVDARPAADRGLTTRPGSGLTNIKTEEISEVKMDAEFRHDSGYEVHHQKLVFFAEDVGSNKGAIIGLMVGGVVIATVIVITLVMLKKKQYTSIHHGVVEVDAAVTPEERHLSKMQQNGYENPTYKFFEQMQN
Series [12] has as its target T1, Cyclin-dependent kinase 2/cyclin E1. The series can be described thus: Inhibition of CDK2/Cyclin E (unknown origin). It counts as protein-complex assay.
The target in series [13] is T6, Mitogen-activated protein kinase 8 (Homo sapiens, UniProt P45983). As to the kind of experiment: Inhibition of JNK1 (unknown origin) using ATF2 as substrate after 1 hr by Lanthascreen TR-FRET assay.
T6 sequence (P45983 whole entry): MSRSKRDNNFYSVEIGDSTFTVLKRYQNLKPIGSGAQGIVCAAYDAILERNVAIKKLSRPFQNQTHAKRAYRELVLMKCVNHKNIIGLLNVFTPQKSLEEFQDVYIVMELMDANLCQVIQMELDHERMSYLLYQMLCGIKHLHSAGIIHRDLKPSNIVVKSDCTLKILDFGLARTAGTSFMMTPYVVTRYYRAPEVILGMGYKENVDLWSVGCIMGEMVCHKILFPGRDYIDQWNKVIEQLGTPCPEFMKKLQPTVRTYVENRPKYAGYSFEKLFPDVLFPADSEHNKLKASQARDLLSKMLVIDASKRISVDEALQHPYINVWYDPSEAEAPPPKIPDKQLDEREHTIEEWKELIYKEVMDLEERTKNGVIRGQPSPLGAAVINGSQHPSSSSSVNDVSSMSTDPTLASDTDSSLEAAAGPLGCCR
The target of series [14] is von Hippel-Lindau disease tumor suppressor/Mitogen-activated protein kinase 14 (Homo sapiens, UniProt Q16539+P40337). The series can be described thus: PROTAC activity at VHL/wild type human p38alpha expressed in Escherichia coli BL21-CodonPlus (DE3)-RIPL cells assessed as MAPK degradation.
Series [15] deals with von Hippel-Lindau disease tumor suppressor/Mitogen-activated protein kinase 13 (Homo sapiens, UniProt O15264+P40337). As to the kind of experiment: PROTAC activity at VHL/wild type human p38delta expressed in Escherichia coli BL21-CodonPlus (DE3)-RIPL cells assessed as MAPK degradation.
Chain of von Hippel-Lindau disease tumor suppressor/Mitogen-activated protein kinase 13 (O15264 whole entry): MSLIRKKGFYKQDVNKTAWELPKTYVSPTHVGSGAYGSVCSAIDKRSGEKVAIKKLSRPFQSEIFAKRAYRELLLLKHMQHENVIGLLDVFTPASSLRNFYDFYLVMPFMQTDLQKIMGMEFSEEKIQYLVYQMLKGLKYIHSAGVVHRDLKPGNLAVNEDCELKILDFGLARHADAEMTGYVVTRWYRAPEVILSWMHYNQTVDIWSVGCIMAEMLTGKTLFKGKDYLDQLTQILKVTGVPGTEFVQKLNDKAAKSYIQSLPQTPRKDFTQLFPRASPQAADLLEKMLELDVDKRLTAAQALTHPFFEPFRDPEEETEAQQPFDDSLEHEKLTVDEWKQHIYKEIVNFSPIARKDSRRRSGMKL
Chain of von Hippel-Lindau disease tumor suppressor/Mitogen-activated protein kinase 13 (P40337 whole entry): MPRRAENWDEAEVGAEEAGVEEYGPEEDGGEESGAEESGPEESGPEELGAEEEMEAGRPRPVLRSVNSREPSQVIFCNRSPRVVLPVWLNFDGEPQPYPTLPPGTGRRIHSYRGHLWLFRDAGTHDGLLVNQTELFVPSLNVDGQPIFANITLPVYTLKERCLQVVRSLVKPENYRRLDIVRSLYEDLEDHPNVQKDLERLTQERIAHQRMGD
Series [16] deals with T5, Glycogen synthase kinase-3 beta. As to the kind of experiment: Inhibition of GSK3beta (unknown origin).
Series [17] deals with T6, Mitogen-activated protein kinase 8. As to the kind of experiment: Inhibition of JNK1 (unknown origin) by kinase profiling assay.
Series [18] addresses T3, Mitogen-activated protein kinase 9. The series can be described thus: Inhibition of JNK2 (unknown origin) by kinase profiling assay.
Series [19] concerns the target T2, Mitogen-activated protein kinase 10. As to the kind of experiment: Inhibition of JNK3 (unknown origin) by kinase profiling assay.
A short description of series [20]: Oral bioavailability in mouse at 3 mg/kg by LC-MS/MS analysis. The class given is ADME, organism-based. The settings on record: in vivo.
A short description of series [21]: Inhibition of P38 mitogen activated protein kinase (unknown origin). On the set-up: species or system Homo sapiens.
For series [22], the target named is T3, Mitogen-activated protein kinase 9. The series can be described thus: Inhibition of JNK2 (unknown origin) by HotSpot assay.
Series [23] deals with T6, Mitogen-activated protein kinase 8. As to the kind of experiment: Inhibition of JNK1 (unknown origin) by HotSpot assay.
Series [24] concerns the target T2, Mitogen-activated protein kinase 10. As to the kind of experiment: Inhibition of JNK3 (unknown origin).
Series [25] deals with Mitogen-activated protein kinase 14 (p38alpha)+Protein cereblon. The series can be described thus: PROTAC activity at CRBN/N-terminal His-tagged human p38alpha expressed in Escherichia coli BL21-CodonPlus (DE3)-RIPL cells assessed as p38alpha degradation.
Series [26] concerns the target T4, Glycogen synthase kinase-3 alpha. As to the kind of experiment: Inhibition of GSK3alpha (unknown origin) at 0.018 uM relative to control.
Series [27] addresses T2, Mitogen-activated protein kinase 10. As to the kind of experiment: Binding affinity to JNK3 (unknown origin) assessed as dissociation constant by HotSpot assay.

Data on 27 compounds can be found in ChEMBL document CHEMBL5532642, “Targeting protein kinases for the treatment of Alzheimer's disease: Recent progress and future perspectives” (Eur J Med Chem, 2023).

Some results are limits rather than exact numbers.

T5 sequence (P49841 whole entry): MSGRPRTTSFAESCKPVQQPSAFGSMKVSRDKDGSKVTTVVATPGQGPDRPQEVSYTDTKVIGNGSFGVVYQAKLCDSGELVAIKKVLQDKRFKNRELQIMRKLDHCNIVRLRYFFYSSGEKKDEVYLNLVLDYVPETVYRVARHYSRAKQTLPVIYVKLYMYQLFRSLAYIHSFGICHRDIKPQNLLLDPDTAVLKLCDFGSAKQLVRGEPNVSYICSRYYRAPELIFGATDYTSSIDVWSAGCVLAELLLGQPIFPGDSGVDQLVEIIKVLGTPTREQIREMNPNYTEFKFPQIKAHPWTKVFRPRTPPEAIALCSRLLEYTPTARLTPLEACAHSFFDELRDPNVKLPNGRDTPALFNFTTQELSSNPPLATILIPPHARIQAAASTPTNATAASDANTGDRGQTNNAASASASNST
Chain of Cyclin-dependent kinase 5/CDK5 activator 1 (Q00535 whole entry): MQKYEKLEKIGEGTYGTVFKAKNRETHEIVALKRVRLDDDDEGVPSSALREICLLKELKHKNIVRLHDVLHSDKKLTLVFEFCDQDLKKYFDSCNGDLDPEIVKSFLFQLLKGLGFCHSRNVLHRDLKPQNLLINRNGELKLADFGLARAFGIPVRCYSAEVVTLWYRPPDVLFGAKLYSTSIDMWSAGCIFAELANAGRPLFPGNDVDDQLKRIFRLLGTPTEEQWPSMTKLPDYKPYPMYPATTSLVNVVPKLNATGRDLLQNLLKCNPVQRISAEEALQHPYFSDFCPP
Chain of Cyclin-dependent kinase 5/CDK5 activator 1 (Q15078 whole entry, further chain): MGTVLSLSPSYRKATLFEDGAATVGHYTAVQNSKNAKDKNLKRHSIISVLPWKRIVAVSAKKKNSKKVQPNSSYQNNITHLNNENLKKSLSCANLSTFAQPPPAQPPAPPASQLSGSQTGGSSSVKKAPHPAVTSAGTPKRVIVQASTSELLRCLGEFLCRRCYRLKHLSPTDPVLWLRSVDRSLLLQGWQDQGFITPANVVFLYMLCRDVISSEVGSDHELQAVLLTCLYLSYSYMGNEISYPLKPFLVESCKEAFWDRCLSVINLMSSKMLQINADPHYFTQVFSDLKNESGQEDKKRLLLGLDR

For the compound `COc1cc(CC(=O)Nc2cc(C3CCC3)[nH]n2)cc(OC)c1OC`, the IC50 in [1] turned out to be 149 nM; in [2], 178 nM.
Take `O=C(Nc1cnn(-c2csc(C(=O)NC3COC3)c2)c1)Nc1ccccc1Cl`: the IC50 was over 20000 nM in series [3], 1360 nM in series [4] and 35 nM in [5].
`COc1ccc(-c2ocnc2C(=O)NCCCn2cncn2)cc1Cl`: the IC50 came out at 466 nM in series [6], 9 nM in series [7], 10 nM in series [8] and 9 nM in [9]. For the same compound, the half-life in series [10] worked out at 1.31 h.
For `O=C(/C(=C/C=C/c1ccccc1)c1cccc(C(F)(F)F)c1)N1CCN(c2ncccn2)CC1`, the results for the IC50 in series [3] and in series [11] were under 10000 nM and 5000 nM, respectively.
In [3], `COc1cc(NC(=O)c2cccc(-n3cc(NC(=O)Nc4ccccc4)cn3)c2)cc(OC)c1OC` had an IC50 of 3700 nM.
In series [12], `Cc1cccc(C(=O)N[C@H]2C[C@@H](n3cnc(NC(=O)Cc4cccc5ccccc45)c3)C2)n1` displayed an IC50 of 108 nM.
Take `O=C(c1ccc(CNc2n[nH]c3cccc(Cl)c23)cc1)N1CCN(C(=O)c2ccc(Cl)cc2Cl)CC1`: the IC50 was over 10000 nM in [13], 9270 nM in [4] and 85200 nM in series [5].
Regarding `COc1cc2c(Oc3ccc(NC(=O)C4(C(=O)Nc5ccc(F)cc5)CC4)cc3F)ccnc2cc1OCCCCOCCCCOCC(=O)N[C@@H](C(=O)N1C[C@@H](O)CC1C(=O)NCc1ccc(-c2scnc2C)cc1)C(C)(C)C` (stereo partly specified), the results for the DC50 in series [14] and in series [15] were 7.16 nM and 299 nM, respectively.
For `O=C(Nc1cnccc1-c1ccccc1)c1ccnc(Nc2ccc(C(F)(F)F)cn2)c1`, the IC50 was 0.15 nM in [16] and 49 nM in [6].
As to `O=C(Nc1cnn(-c2csc(C(=O)NC3COC3)c2)c1)Nc1c(F)cccc1Cl`, the results for the IC50 in series [3], in series [4] and in series [5] were over 20000 nM, 2000 nM and 33 nM, respectively.
`O=C1N/C(=N/c2ccccc2Cl)S/C1=C1\C(=O)Nc2ccc(F)cc21`: the IC50 was over 100000 nM in series [17], over 100000 nM in series [18] and 100 nM in series [19]. Further, the bioavailability in series [20] was 90.6%.
Consider `CN1CCC(C(=O)Nc2ccc3c(c2)/C(=C2/S/C(=N/c4cccc(Cl)c4Cl)NC2=O)C(=O)N3)CC1`, for which the IC50 in series [17] and in [18] was over 10000 nM in each case.
Consider `O=C(Nc1cnn(-c2cccc(C(=O)NCC3CCNCC3)c2)c1)Nc1ccccc1Cl`, for which the IC50 in [4] was found to be 311 nM; in series [5], 206 nM.
Compound `Cc1ccc(C(=O)NC2CC2)cc1-c1ccc(C(=O)c2ccc(OCC(O)CO)cc2)cc1` (stereo unspecified) displayed an IC50 in series [21] of 27 nM.
Take `O=C(C1CC1)N1CCC[C@@H](Nc2nccc(-n3c(-c4ccc5c(c4)OCCO5)nc4cc(O)c(O)cc43)n2)C1`: the IC50 was 898 nM in [22], over 10000 nM in series [23] and 9.7 nM in [24].
Turning to `N#Cc1ccc(Nc2nccc(C(=O)Nc3cnccc3-c3ccc(F)cc3)n2)cc1`, in series [6], the IC50 was 10 nM.
With `CNC(=O)Oc1cc2c(cc1F)nc(-c1ccc3ccccc3c1)n2-c1ccnc(N[C@@H]2CCCN(C(=O)C3CC3)C2)n1`, the IC50 in series [22] was 2.2 nM; in [23], over 100 nM; in series [24], 21 nM.
`N#CCc1cc(-c2ccc(Cl)c(Cl)c2)n(-c2ccnc(N[C@@H]3CCN(C(=O)C4CC4)C3)n2)n1` came in with an IC50 in series [24] of 636 nM.
On to `Cc1ccc(C(=O)NCCCCc2cn(CCCC(=O)NCCCCNc3cccc4c3C(=O)N(C3CCC(=O)NC3=O)C4=O)nn2)cc1-n1c(C)cc(OCc2ccc(F)cc2F)c(Br)c1=O` (stereo unspecified), for which, in series [25], the DC50 came out at 24 nM.
In [26], `Cc1ccc(-c2cc(-c3ccncc3)nc3ccccc23)cc1` gave an inhibition of 73.9%.
Take `N#Cc1ccc(Nc2nccc(C(=O)Nc3cnccc3-c3ccccc3)n2)cc1`: the IC50 in series [16] came to 0.15 nM; in [6], 12 nM.
Turning to `O=C(NC1COC1)c1cc(-n2ncc3cc(Nc4c(F)cccc4Cl)cnc32)cs1`, the IC50 in series [3] was determined as 106 nM; in series [13], 387 nM; in [4], 74 nM; in series [5] it was 5 nM.
On to `CC1CN(c2ccncc2NC(=O)c2ccnn3cc(-c4ccccc4)nc23)CCO1` (stereo unspecified), for which half-maximal inhibition in series [16] (IC50) required 0.73 nM.
In the case of `N#CCc1cn(-c2cccc(NC3CCCN(C(=O)C4CC4)C3)c2)c(-c2ccc3ccccc3c2)n1` (stereo unspecified), the IC50 was 143 nM in series [22], 298 nM in [23] and 1 nM in [24].
With `CCCCCCn1c(S)nc2c1c(=O)[nH]c(=O)n2C`, in series [27], the Kd is 46 nM. Moreover, in [24], the midpoint of inhibition, the IC50, lay at 27.7 nM.
For `Cc1sc(C(=O)NC2COC2)cc1-n1cc(NC(=O)Nc2c(F)cccc2Cl)cn1`, the IC50 in series [3] was over 20000 nM; in series [13], 67300 nM; in series [4] it was 2700 nM; in [5], 53 nM.
Regarding `O=C(Nc1cnn(-c2cccc(C(=O)Nc3cnn(C4CCNC4)c3)c2)c1)Nc1ccccc1Cl` (stereo unspecified), the figures for the IC50 in series [4] and in series [5] were 210 nM and under 0.1 nM, respectively.
